Measured values published in US6686462B2 (The Regents of the University of California, priority 1997, dated 2004).
Several values for one entry are separate records, joined by “and”; a condition that tells them apart may be missing. Equal values may be shown once. Where a name gives a salt, the structure may show the parent alone. Read-outs that look alike come from different tables or passages of the source.

How the values were obtained:
HIV-1 [1] = test: microbe, parasite or virus in culture; conditions: for EC50: Human immunodeficiency virus 1, read-out: EC50(HIV-1)
Source text: (§2) (EC50 is concentration to reduce HIV plaques by 50% and expressed as mean ±standard deviation).

HIV-1LAI = test: HIV plaque reduction assay, wild-type strain; type: cell-based; conditions: Human immunodeficiency virus 1
Protocol: (§3) Compounds of the invention were tested in a plaque-forming assay of HIV-1 proliferation in a human CD4+lymphocytic cell line (HT-4) by the procedures described in K. Y. Hostetler et al., J. Biol. Chem., 265:6112-6117 (1990); and K. Y. Hostetler et al., J. Biol. Chem., 266:11714-11717 (1991). […] (EC50 is concentration to reduce HIV plaques by 50% and expressed as mean ±standard deviation).
(§4) The assays were conducted by procedures of Example 27 above and as disclosed in K. Y. Hostetler et al., J. Biol. Chem., 265:6112-6117 (1990); and K. Y. Hostetler et al., J. Biol. Chem., 266:11714-11717 (1991).

A018-post [2] = conditions: AZT-resistant, AZT data from Larder et al., Science 1989; cited from earlier work
LAI-E89K = test: HIV plaque reduction assay, PFA-resistant strain; type: cell-based, HIV-1
Protocol: as §3, §4

HIV-1 [3] = conditions: for reduction of the number of viral plaques: at 1 μM, the highest concentration achievable in the growth medium
Source text: as §2

[4] = Toxicity in HT4-6C cells by visual grading of cell morphology; conditions: human
Protocol: (§1) Selected compounds of the invention and PFA were tested for activity in HT4-6C cell by procedures disclosed in B. A. Larder et al., Science, 243:1731-1734 (1989). […] The TC50 values were determined using the following visual grading scale after 3 days to exposure to the tested drug compound: 4—normal appearance; 3—slight reduction of normal cells; 2-50% of cells appear normal; 1—sparse number of normal appearing cells; 0—no living cells. Values reported in the Table below are mean ±standard deviation.

[5] = tested on: human T-Lymphoblastic Leukemia Cells (CEM cells); test: Toxicity in CEM cells by propidium iodide staining and flow cytometry; type: cell-based; conditions: for Selectivity Index: TC50 in CEM cells / EC50; for CC50: rapidly dividing CEM cells, viable cell numbers, read-out: TC50 (the source's name)
Protocol: TC50 values were also assessed by exposing rapidly dividing human T-Lymphoblastic Leukemia Cells (CEM cells) to selected compounds of the invention and PFA. Viable cell numbers were determined by propidium iodide staining and fluorescent flow cytometry according to procedures disclosed in Dangl et al., Cytometry, 2:395-401 (1982).

HT4-6C cells = test: Toxicity in HT4-6C cells by visual grading of cell morphology; conditions: for Selectivity Index: TC50/EC50, HT4-6C cells
Protocol: as §1

A018-post [6] = test: HIV plaque reduction assay, AZT-resistant strain; type: cell-based, HIV-1; conditions: Human immunodeficiency virus 1
Protocol: as §3, §4

For `CCCCCCCCCCCCCCCCCCOC(=O)P(=O)(O)OC` (as salt: sodium) [Example 8, Sodium Methyl 1-octadecyloxycarbonylphosphonate], the melting point was 92 to 93 °C.

With `CCCCCCCCCCCCCCCCCCCCOC(=O)P(=O)(O)OC` (as salt: sodium) [Example 9, Sodium Methyl 1-eicosanyloxycarbonylphosphonate] the melting point was 95 to 96 °C.

In the case of `Cc1cn([C@H]2C[C@H](N=[N+]=[N-])[C@@H](CO)O2)c(=O)[nH]c1=O` [AZT, 3′-azido-3′-deoxythymidine], the EC50 (HIV-1 [1]) is given as 0.007 µM, the EC50 (HIV-1LAI) is given as 0.013 ± 0.006 µM and the EC50 (A018-post [2]) is given as 4 µM and 2.3 µM. The EC50 (LAI-E89K; Human immunodeficiency virus 1) was 0.009 ± 0.005 µM.

With `CCCCCCCCCCCCCCCCCCOC(=O)P(=O)(O)OC` [Example 8, Sodium Methyl 1-octadecyloxycarbonylphosphonate] the “reduction of the number of viral plaques” value (HIV-1 [3]; HT-4 cells) was 35% and the CC50 at 3 days [4] was 10 µM.

In the case of `CCCCCCCCCCCCCCCCCCCCOC(=O)P(=O)(O)OC` [Example 9, Sodium Methyl 1-eicosanyloxycarbonylphosphonate], the “reduction of the number of viral plaques” value (HIV-1 [3]; HT-4 cells) is reported as 35% and the CC50 at 3 days [4] is reported as 10 µM.

In the case of `CCCCCCCCCCCCCCCCCCOC(=O)O[PH](=O)OC[C@H]1O[C@@H](n2cc(C)c(=O)[nH]c2=O)C[C@@H]1N=[N+]=[N-]` (some centres unmarked) [Example 20, 3′-azido-3′-deoxy-5′-O-(1-octadecyloxycarbonyloxyphosphinyl)thymidine], the melting point is reported as 224 °C (dec.).

For `CCCCCCCCCCCCCCCCCCOC(=O)P(=O)(O)OC[C@H]1O[C@@H](n2cc(C)c(=O)[nH]c2=O)C[C@@H]1N=[N+]=[N-]` [Example 20], the EC50 (HIV-1LAI) was 0.1 ± 0.15 µM, the EC50 (LAI-E89K; Human immunodeficiency virus 1) was 0.13 ± 0.14 µM and the “Selectivity Index” value [5] was 280. The CC50 [5] was 28 µM, the “Selectivity Index” value (HT4-6C cells) was 100 and the CC50 at 3 days [4] was 10 µM. For the same compound, the EC50 (A018-post [6]) was 0.3 ± 0.32 µM.

In the case of `CCCCCCCCCCCCCCCCCCCCOC(=O)O[PH](=O)OC[C@H]1O[C@@H](n2cc(C)c(=O)[nH]c2=O)C[C@@H]1N=[N+]=[N-]` (some centres unmarked) [Example 21], the melting point is reported as 230 °C (dec.).

In the case of `CCCCCCCCCCCCCCCCCCCCOC(=O)P(=O)(O)OC[C@H]1O[C@@H](n2cc(C)c(=O)[nH]c2=O)C[C@@H]1N=[N+]=[N-]` [Example 21], the EC50 (HIV-1 [1]) is reported as 0.05 µM, the EC50 (HIV-1LAI) is reported as 0.14 ± 0.16 µM and the EC50 (LAI-E89K; Human immunodeficiency virus 1) is reported as 0.009 ± 0.007 µM. For the same compound, the “fold less active than AZT” value (HIV-1 [3]; EC50(HIV-1) compared with AZT) was 7 fold, the “times more active than PFA” value (HIV-1 [3]; EC50(HIV-1) compared with PFA) was 2,800 times and the “Selectivity Index” value [5] was 257. The CC50 [5] was 36 µM, the “Selectivity Index” value (HT4-6C cells) was 228 and the cytotoxicity (HT4-6C cells; at 0.1-1.0 μM) was “slight to moderate”. For the same compound, the cytotoxicity (HT4-6C cells; at 10 and 100 μM) was “significant”, the therapeutic selectivity (HT4-6C cells; toxic concentration over EC50(HIV-1)) was “ca. 200” and the CC50 at 3 days [4] was 32 µM. For the same compound, the EC50 (A018-post [6]) was 0.53 ± 0.68 µM.

In the case of `CCCCCCCCCCCCCCCCCCCCCCOC(=O)O[PH](=O)OC[C@H]1O[C@@H](n2cc(C)c(=O)[nH]c2=O)C[C@@H]1N=[N+]=[N-]` (some centres unmarked) [Example 22, 3′-Azido-3′-deoxy-5′-O-(1-docosanyloxycarbonyloxyphosphinyl) thymidine], the melting point is reported as 238 °C (dec.).

In the case of `CCCCCCCCCCCCCCCCCCCCCCOC(=O)P(=O)(O)OC[C@H]1O[C@@H](n2cc(C)c(=O)[nH]c2=O)C[C@@H]1N=[N+]=[N-]` [Example 22], the EC50 (HIV-1LAI) is reported as 0.32 ± 0.2 µM, the EC50 (LAI-E89K; Human immunodeficiency virus 1) is reported as 0.17 ± 0.11 µM and the “Selectivity Index” value [5] is reported as 291. The CC50 [5] was 93 µM, the “Selectivity Index” value (HT4-6C cells) was 1000 and the CC50 at 3 days [4] was 320 µM. It also gave an EC50 (A018-post [6]) of 0.77 ± 1.1 µM.

With `Cc1cn([C@H]2C[C@H](N=[N+]=[N-])[C@@H](COP(=O)(O)C(=O)O[C@H]3CC[C@@]4(C)C(=CC[C@H]5[C@@H]6CC[C@H]([C@H](C)CCCC(C)C)[C@@]6(C)CC[C@@H]54)C3)O2)c(=O)[nH]c1=O` [Example 23] the IC50 (HIV-1 [3]; read-out: IC50 (HIV-1), plaque-forming assay, HT-4 cells) was 0.25 µM.

`CCCCCCCCCCCCCCCCOCCCOP(=O)(O)C(=O)OC[C@H]1O[C@@H](n2cc(C)c(=O)[nH]c2=O)C[C@@H]1N=[N+]=[N-]` [Example 25] showed an EC50 (LAI-E89K; LAI-E89K, PFA-resistant, mean ± SD of 3 experiments, Example 25: single test value, read-out: EC50) of 1.3 µM and a CC50 [5] of 65 µM.

With `O=C(O)P(=O)(O)O` [PFA, phosphonoformic acid, reference compound] the IC50 (HIV-1 [1]; Human immunodeficiency virus 1, read-out: IC50 (HIV-1)) was 133 µM, the EC50 (HIV-1LAI) was 133 ± 54 µM and the EC50 (LAI-E89K; Human immunodeficiency virus 1) was > 1000 µM. For the same compound, the EC50 (A018-post [6]) was 65 ± 13 µM.
